These results are taken from PubChem BioAssay AID270 (DTP/NCI, 2004).

Several values for one entry are separate records, joined by “and”; a condition that tells them apart may be missing. Equal entries are not always repeated. Results filed as inconclusive are left out.

This assay deals with BDF1 mice, s.c. Lewis lung carcinoma, T/C %. Put plainly: NCI In Vivo Anticancer Drug Screen. Data for tumor model Lewis Lung Carcinoma (subcutaneous) in B6D2F1 (BDF1) mice. The procedure, abridged: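 First, mice carry a transplantable tumor. Next, groups receive either compound or vehicle. Finally, survival or tumor dimensions in the dosed animals are divided by the corresponding control figure.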

The mark [1] stands for this setting: endpoint: median survival time, dose: 10.0 mg/kg/injection, schedule: Q01DX009 (ip), vehicle: saline, higher = longer survival.
[2] abbreviates: endpoint: median survival time, dose: 20.0 mg/kg/injection, schedule: Q01DX009 (ip), vehicle: saline, higher = longer survival.
Setting [3] is: endpoint: median survival time, dose: 5.0 mg/kg/injection, schedule: Q01DX009 (ip), vehicle: saline with Tween-80, higher = longer survival.
Where [4] appears, read: endpoint: median survival time, dose: 5.0 mg/kg/injection, schedule: Q01DX009 (ip), vehicle: saline, higher = longer survival.

`CC(=O)[C@H]1CC[C@H]2[C@@H]3C[C@H](C)C4=CC(=O)CC[C@]4(C)[C@H]3C(=O)C[C@]12C`: the T/C runs as follows: (endpoint: mean tumor weight (est.), dose: 100.0 mg/kg/injection, schedule: Q01DX009 (ip), vehicle: saline, higher = larger tumour) 65 % of control; (endpoint: mean tumor weight (est.), dose: 200.0 mg/kg/injection, schedule: Q01DX009 (ip), vehicle: saline, higher = larger tumour) 35 % of control; (endpoint: mean tumor weight (est.), dose: 400.0 mg/kg/injection, schedule: Q01DX009 (ip), vehicle: saline, higher = larger tumour) 37 % of control; (endpoint: mean tumor weight (est.), dose: 800.0 mg/kg/injection, schedule: Q01DX009 (ip), vehicle: saline, higher = larger tumour) 60 % of control; (endpoint: median survival time, dose: 100.0 mg/kg/injection, schedule: Q01DX009 (ip), vehicle: saline, higher = longer survival) 103 % of control; (endpoint: median survival time, dose: 200.0 mg/kg/injection, schedule: Q01DX009 (ip), vehicle: saline, higher = longer survival) 110 % of control. Also, the T/C (endpoint: median survival time, dose: 400.0 mg/kg/injection, schedule: Q01DX009 (ip), vehicle: saline, higher = longer survival) was 113 % of control and the T/C (endpoint: median survival time, dose: 800.0 mg/kg/injection, schedule: Q01DX009 (ip), vehicle: saline, higher = longer survival) is 100 % of control.

As to `C=C(C)C(=O)O[C@H]1CC2=C[C@@H](C[C@@]3(C)O[C@@H]3[C@H]3OC(=O)C(=C)[C@@H]31)OC2=O`, the T/C by setting is: (endpoint: mean tumor weight, dose: 2.0 mg/kg/injection, schedule: Q01DX011 (ip), vehicle: saline, higher = larger tumour) 171 % of control; (endpoint: mean tumor weight, dose: 4.0 mg/kg/injection, schedule: Q01DX011 (ip), vehicle: saline, higher = larger tumour) 118 % of control; (endpoint: mean tumor weight, dose: 8.0 mg/kg/injection, schedule: Q01DX011 (ip), vehicle: saline, higher = larger tumour) 107 % of control.

Consider `Nc1nc(=S)c2[nH]c(N=Nc3ccc(S(=O)(=O)Nc4ncccn4)cc3)nc2[nH]1`, for which the T/C is, setting by setting: (endpoint: median survival time, dose: 0.78 mg/kg/injection, schedule: Q01DX009 (ip), vehicle: Klucel (hydroxypropylcellulose) (HPC), higher = longer survival) 99 % of control; (endpoint: median survival time, dose: 1.56 mg/kg/injection, schedule: Q01DX009 (ip), vehicle: Klucel (hydroxypropylcellulose) (HPC), higher = longer survival) 101 % of control; (endpoint: median survival time, dose: 3.12 mg/kg/injection, schedule: Q01DX009 (ip), vehicle: Klucel (hydroxypropylcellulose) (HPC), higher = longer survival) 95 % of control; (endpoint: median survival time, dose: 6.25 mg/kg/injection, schedule: Q01DX009 (ip), vehicle: Klucel (hydroxypropylcellulose) (HPC), higher = longer survival) 105 % of control.

As for `c1ccc(C2=C(c3ccccc3)C(c3ccccc3)=C(c3ccccc3)C2)cc1`, the T/C is, setting by setting: (endpoint: mean tumor weight, dose: 118.0 mg/kg/injection, schedule: Q01DX011 (ip), vehicle: other, higher = larger tumour) 89 % of control; (endpoint: mean tumor weight, dose: 178.0 mg/kg/injection, schedule: Q01DX011 (ip), vehicle: other, higher = larger tumour) 65 % of control; (endpoint: mean tumor weight, dose: 250.0 mg/kg/injection, schedule: Q01DX011 (ip), vehicle: other, higher = larger tumour) 92 % of control; (endpoint: mean tumor weight, dose: 266.0 mg/kg/injection, schedule: Q01DX011 (ip), vehicle: other, higher = larger tumour) 84 % of control; (endpoint: mean tumor weight, dose: 400.0 mg/kg/injection, schedule: Q01DX011 (ip), vehicle: other, higher = larger tumour) 109 % of control; (endpoint: mean tumor weight, dose: 750.0 mg/kg/injection, schedule: Q01DX011 (ip), vehicle: other, higher = larger tumour) 124 % of control. For the same compound, the T/C (endpoint: mean tumor weight, dose: 1000.0 mg/kg/injection, schedule: Q01DX011 (ip), vehicle: other, higher = larger tumour) was 60 % of control.

For `COc1cc(C(=O)OC2CC34CCNC35CC(OC5(OC)C2O)c2cc3c(cc24)OCO3)ccc1O` (centres undefined), the T/C reads like this: (endpoint: mean tumor weight, dose: 0.25 mg/kg/injection, schedule: Q01DX011 (ip), vehicle: carboxymethylcellulose (CMC), higher = larger tumour) 41 % of control; (endpoint: mean tumor weight, dose: 0.5 mg/kg/injection, schedule: Q01DX011 (ip), vehicle: carboxymethylcellulose (CMC), higher = larger tumour) 50 % of control; (endpoint: mean tumor weight, dose: 1.0 mg/kg/injection, schedule: Q01DX011 (ip), vehicle: carboxymethylcellulose (CMC), higher = larger tumour) 87 % of control.

Take `CCN=C=NCCCN(C)C`: the T/C was 106 % of control under setting [1]; 107 % of control under setting [2]; 93 % of control (endpoint: median survival time, dose: 40.0 mg/kg/injection, schedule: Q01DX009 (ip), vehicle: saline, higher = longer survival); 96 % of control (endpoint: median survival time, dose: 80.0 mg/kg/injection, schedule: Q01DX009 (ip), vehicle: saline, higher = longer survival).

On to `O=NN(CCF)C(=O)NC1CCSCC1`, for which the T/C was 114 % of control (endpoint: median survival time, dose: 2.5 mg/kg/injection, schedule: Q01DX009 (ip), vehicle: saline with Tween-80, higher = longer survival); 103 % of control (endpoint: median survival time, dose: 2.5 mg/kg/injection, schedule: Q01DX009 (ip), vehicle: saline, higher = longer survival); 191 % of control under setting [3]; 113 % of control under setting [4]; 204 % of control under setting [1]; 279 % of control (endpoint: median survival time, dose: 13.0 mg/kg/injection, schedule: Q04DX004 (ip), vehicle: saline with Tween-80, higher = longer survival). In addition, the T/C by setting is: (endpoint: median survival time, dose: 18.0 mg/kg/injection, schedule: Q04DX004 (ip), vehicle: saline with Tween-80, higher = longer survival) 194 % of control and 345 % of control; under setting [2], 108 % of control; (endpoint: median survival time, dose: 23.0 mg/kg/injection, schedule: Q04DX004 (ip), vehicle: saline with Tween-80, higher = longer survival) 122 % of control; (endpoint: median survival time, dose: 25.0 mg/kg/injection, schedule: Q07DX002 (ip), vehicle: saline with Tween-80, higher = longer survival) 190 % of control and 381 % of control; (endpoint: median survival time, dose: 39.0 mg/kg/injection, schedule: Q07DX002 (ip), vehicle: saline with Tween-80, higher = longer survival) 198 % of control; (endpoint: median tumor weight (est.), dose: 14.0 mg/kg/injection, schedule: Q01DX001 (ip), vehicle: saline with Tween-80, higher = larger tumour) 53 % of control. In addition, the T/C (endpoint: median tumor weight (est.), dose: 27.0 mg/kg/injection, schedule: Q01DX001 (ip), vehicle: saline with Tween-80, higher = larger tumour) was 8 % of control.

As for `O=c1[nH]cc(F)c(=O)[nH]1`, the T/C runs as follows: (endpoint: mean tumor weight, dose: 5.0 mg/kg/injection, schedule: Q01DX011 (ip), vehicle: saline, higher = larger tumour) 54 % of control; (endpoint: mean tumor weight, dose: 10.0 mg/kg/injection, schedule: Q01DX011 (ip), vehicle: saline, higher = larger tumour) 68 % of control; (endpoint: mean tumor weight, dose: 13.5 mg/kg/injection, schedule: Q01DX011 (ip), vehicle: water, higher = larger tumour) 51 % of control; (endpoint: mean tumor weight, dose: 20.0 mg/kg/injection, schedule: Q01DX011 (ip), vehicle: saline, higher = larger tumour) 35 % of control; (endpoint: mean tumor weight, dose: 27.0 mg/kg/injection, schedule: Q01DX011 (ip), vehicle: water, higher = larger tumour) 6 % of control; (endpoint: median survival time, dose: 5.0 mg/kg/injection, schedule: Q01DX009 (ip), vehicle: Klucel (hydroxypropylcellulose) (HPC), higher = longer survival) 86 % of control. In addition, the T/C by setting is: under setting [3], 97 % of control; under setting [4], 108 % of control; (endpoint: median survival time, dose: 10.0 mg/kg/injection, schedule: Q01DX009 (ip), vehicle: Klucel (hydroxypropylcellulose) (HPC), higher = longer survival) 97 % of control and 98 % of control; (endpoint: median survival time, dose: 10.0 mg/kg/injection, schedule: Q01DX009 (ip), vehicle: saline with Tween-80, higher = longer survival) 86 % of control; under setting [1], 118 % of control; (endpoint: median survival time, dose: 16.2 mg/kg/injection, schedule: Q04DX002 (ip), vehicle: saline, higher = longer survival) 97 % of control and 102 % of control. Also, the T/C (endpoint: median survival time, dose: 20.0 mg/kg/injection, schedule: Q01DX009 (ip), vehicle: Klucel (hydroxypropylcellulose) (HPC), higher = longer survival) was 111 % of control; the T/C (endpoint: median survival time, dose: 20.0 mg/kg/injection, schedule: Q01DX009 (ip), vehicle: saline with Tween-80, higher = longer survival) was 97 % of control and 112 % of control; the T/C (endpoint: median survival time, dose: 21.6 mg/kg/injection, schedule: Q04DX004 (ip), vehicle: saline, higher = longer survival) was 124 % of control; the T/C (endpoint: median survival time, dose: 23.3 mg/kg/injection, schedule: Q04DX003 (iv), vehicle: alkali diluted with saline, higher = longer survival) was 157 % of control; the T/C (endpoint: median survival time, dose: 27.0 mg/kg/injection, schedule: Q04DX002 (ip), vehicle: saline, higher = longer survival) is 100 % of control and 102 % of control; the T/C (endpoint: median survival time, dose: 36.0 mg/kg/injection, schedule: Q04DX004 (ip), vehicle: saline, higher = longer survival) was 115 % of control. The T/C was 86 % of control (endpoint: median survival time, dose: 40.0 mg/kg/injection, schedule: Q01DX009 (ip), vehicle: Klucel (hydroxypropylcellulose) (HPC), higher = longer survival); 201 % of control (endpoint: median survival time, dose: 40.4 mg/kg/injection, schedule: Q04DX003 (iv), vehicle: alkali diluted with saline, higher = longer survival); 96 % of control and 97 % of control (endpoint: median survival time, dose: 45.0 mg/kg/injection, schedule: Q04DX002 (ip), vehicle: saline, higher = longer survival); 98 % of control (endpoint: median survival time, dose: 70.0 mg/kg/injection, schedule: Q04DX003 (iv), vehicle: alkali diluted with saline, higher = longer survival); 105 % of control (endpoint: median survival time, dose: 75.0 mg/kg/injection, schedule: Q04DX002 (ip), vehicle: saline, higher = longer survival); 64 % of control (endpoint: median survival time, dose: 100.0 mg/kg/injection, schedule: Q04DX004 (ip), vehicle: saline, higher = longer survival). Further, the T/C is, setting by setting: (endpoint: median survival time, dose: 121.0 mg/kg/injection, schedule: Q04DX003 (iv), vehicle: alkali diluted with saline, higher = longer survival) 95 % of control; (endpoint: median survival time, dose: 125.0 mg/kg/injection, schedule: Q04DX002 (ip), vehicle: saline, higher = longer survival) 109 % of control; (endpoint: median tumor weight (est.), dose: 5.0 mg/kg/injection, schedule: Q01DX009 (ip), vehicle: Klucel (hydroxypropylcellulose) (HPC), higher = larger tumour) 102 % of control; (endpoint: median tumor weight (est.), dose: 5.0 mg/kg/injection, schedule: Q01DX009 (ip), vehicle: saline with Tween-80, higher = larger tumour) 97 % of control; (endpoint: median tumor weight (est.), dose: 10.0 mg/kg/injection, schedule: Q01DX009 (ip), vehicle: Klucel (hydroxypropylcellulose) (HPC), higher = larger tumour) 91 % of control; (endpoint: median tumor weight (est.), dose: 10.0 mg/kg/injection, schedule: Q01DX009 (ip), vehicle: saline with Tween-80, higher = larger tumour) 93 % of control. The T/C was 73 % of control (endpoint: median tumor weight (est.), dose: 20.0 mg/kg/injection, schedule: Q01DX009 (ip), vehicle: Klucel (hydroxypropylcellulose) (HPC), higher = larger tumour) and 53 % of control (endpoint: median tumor weight (est.), dose: 20.0 mg/kg/injection, schedule: Q01DX009 (ip), vehicle: saline with Tween-80, higher = larger tumour).
